Data: patent US20240287080A1 (IDEAYA Biosciences Inc., priority 2021, published 2024)

Biological target: T1, Pol theta (1-899) (Homo sapiens, UniProt O75417)
T1 construct: Pol theta (1-899) (5 nM) in assay buffer
Experiment: Pol theta ATPase activity, NADH oxidation-coupled enzymatic assay (ATPase NADH coupling: Standard Screening: hPolQ)
Format: biochemical
Settings: Pol theta (1-899) 5 nM
Procedure, shortened: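 Rates of ATP hydrolysis taken from 60-min A340 traces of NADH oxidation via PK/LDH coupling, then fit four-parameter for IC50, Hill slope and max inhibition. Enzyme (5 nM, 1-899) and compounds preincubated 15 min before ATP 100 μM and 50-thymine ssDNA 300 nM (stock, equal volume added).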

[1] = NADH oxidation-coupled ATPase assay, compounds of Table 3

T1 sequence (O75417 1-899): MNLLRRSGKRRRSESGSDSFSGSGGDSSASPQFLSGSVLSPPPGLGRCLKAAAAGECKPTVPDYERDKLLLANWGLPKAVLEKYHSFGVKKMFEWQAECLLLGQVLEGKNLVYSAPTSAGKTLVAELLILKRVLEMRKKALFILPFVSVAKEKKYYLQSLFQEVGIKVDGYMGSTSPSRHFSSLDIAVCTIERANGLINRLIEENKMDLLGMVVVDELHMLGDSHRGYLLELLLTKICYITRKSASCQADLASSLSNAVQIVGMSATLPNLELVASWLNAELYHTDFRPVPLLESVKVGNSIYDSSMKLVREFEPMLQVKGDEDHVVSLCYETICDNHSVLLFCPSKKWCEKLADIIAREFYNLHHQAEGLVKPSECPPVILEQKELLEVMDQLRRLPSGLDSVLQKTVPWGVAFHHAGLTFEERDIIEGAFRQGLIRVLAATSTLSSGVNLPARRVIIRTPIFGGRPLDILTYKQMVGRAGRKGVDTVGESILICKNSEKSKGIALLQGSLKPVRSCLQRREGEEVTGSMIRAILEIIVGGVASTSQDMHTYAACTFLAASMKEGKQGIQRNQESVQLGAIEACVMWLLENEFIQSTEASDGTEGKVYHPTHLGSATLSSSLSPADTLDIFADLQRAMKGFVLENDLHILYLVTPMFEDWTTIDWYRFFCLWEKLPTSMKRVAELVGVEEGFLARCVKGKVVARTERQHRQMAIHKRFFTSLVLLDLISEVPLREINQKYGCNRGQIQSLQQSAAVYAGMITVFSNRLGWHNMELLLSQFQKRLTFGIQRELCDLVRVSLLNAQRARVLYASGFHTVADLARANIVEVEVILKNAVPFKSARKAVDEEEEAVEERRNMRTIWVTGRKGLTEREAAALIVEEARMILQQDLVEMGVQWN

Compound	IC50 (Table 5, ATP, dT50 ssDNA) [nM]	IC50 [1] [nM]	also measured
COc1nnc(NC(=O)c2cnc(C)cc2-c2ccc3c(c2)C(=O)NC3)s1 [Example 332, N-(5-methoxy-1,3,4-thiadiazol-2-yl)-6-methyl-4-(3-oxo-2,3-dihydro-1H-isoindol-5-yl)pyridine-3-carboxamide]	–	1000 to 10000	–
CCc1cccc(-c2cc(C)ncc2C(=O)Nc2nnc(OC)s2)c1 [Example 383, 4-(3-ethylphenyl)-N-(5-methoxy-1,3,4-thiadiazol-2-yl)-6-methylpyridine-3-carboxamide]	–	500 to 1000	–
COc1nnc(NC(=O)c2cc(OC(F)F)ncc2-c2cc(Cl)ncc2OC)s1 [Example 265, 2′-chloro-6-(difluoromethoxy)-5′-methoxy-N-(5-methoxy-1,3,4-thiadiazol-2-yl)-[3,4′-bipyridine]-4-carboxamide]	–	≤ 200	–
COc1nnc(NC(=O)c2cnc(C)cc2-c2cc(Cl)cc3c2OCCN3)s1 [Example 320, 4-(6-chloro-3,4-dihydro-2H-benzo[b][1,4]oxazin-8-yl)-N-(5-methoxy-1,3,4-thiadiazol-2-yl)-6-methylnicotinamide]	–	≤ 200	–
COc1nnc(NC(=O)c2cnc(C)cc2-c2ccn(C)c(=O)c2)s1 [Example 351, N-(5-methoxy-1,3,4-thiadiazol-2-yl)-1′,6-dimethyl-2′-oxo-1′,2′-dihydro-[4,4′-bipyridine]-3-carboxamide]	–	1000 to 10000	–
COc1nnc(NC(=O)c2cnc(C)cc2-c2cccc3ncccc23)s1 [Example 485, N-(5-methoxy-1,3,4-thiadiazol-2-yl)-6-methyl-4-(quinolin-5-yl)nicotinamide]	–	200 to 500	–
COc1nnc(NC(=O)c2cnc(C)cc2-c2cc(Br)c([S@@+](C)[O-])cc2OC)s1 (single isomer, unassigned) [Example 319]	–	≤ 200	–
COc1nnc(NC(=O)c2ccc(C#N)cc2-c2cc(Cl)ncc2OC)s1 [Example 248, 2-(2-chloro-5-methoxypyridin-4-yl)-4-cyano-N-(5-methoxy-1,3,4-thiadiazol-2-yl)benzamide]	–	≤ 200	–
COc1nnc(NC(=O)c2cnc(CN3CC(OC)C3)cc2-c2cc(Cl)ncc2OC)s1 [Example 144, 2′-chloro-5′-methoxy-N-(5-methoxy-1,3,4-thiadiazol-2-yl)-6-((3-methoxyazetidin-1-yl)methyl)-(4,4′-bipyridine)-3-carboxamide]	–	–	IC50 (Table 5, values given as bound, ATP, dT50 ssDNA): > 10000 nM
CCOc1nnc(NC(=O)c2cnc(C)cc2-c2cc(Cl)ncc2OC)s1 [Example 28, 2′-chloro-N-(5-ethoxy-1,3,4-thiadiazol-2-yl)-5′-methoxy-6-methyl-(4,4′-bipyridine)-3-carboxamide]	–	–	IC50 (Table 4, ATP, dT50 ssDNA): ≤ 200 nM
COc1cnc(C)cc1-c1cc(C)ncc1C(=O)Nc1nnc(O)s1 [Example 325, N-(5-hydroxy-1,3,4-thiadiazol-2-yl)-5′-methoxy-2′,6-dimethyl-[4,4′-bipyridine]-3-carboxamide]	–	1000 to 10000	–
COc1nnc(NC(=O)c2cnc(C)cc2-c2cncc(F)c2)s1 [Example 471, 5-fluoro-N-(5-methoxy-1,3,4-thiadiazol-2-yl)-6′-methyl-[3,4′-bipyridine]-3′-carboxamide]	–	1000 to 10000	–
COc1nnc(NC(=O)c2cc(F)c(C)cc2-c2cc(Cl)ncc2OC)s1 [Example 282, 2-(2-chloro-5-methoxypyridin-4-yl)-5-fluoro-N-(5-methoxy-1,3,4-thiadiazol-2-yl)-4-methyl benzamide]	–	≤ 200	–
COc1nnc(NC(=O)c2cnc(C)cc2-c2cnn3c2CCCC3)s1 [Example 395, N-(5-methoxy-1,3,4-thiadiazol-2-yl)-6-methyl-4-{4H,5H,6H,7H-pyrazolo[1,5-a]pyridin-3-yl}pyridine-3-carboxamide]	–	1000 to 10000	–
COc1nnc(NC(=O)c2cnc(C)cc2-c2ccc3c(cnn3C)c2)s1 [Example 449, N-(5-methoxy-1,3,4-thiadiazol-2-yl)-6-methyl-4-(1-methyl-1H-indazol-5-yl)pyridine-3-carboxamide]	–	500 to 1000	–
COc1nnc(NC(=O)c2cnc(C)cc2-c2ccc(S(=O)(=O)N(C)C)cc2)s1 [Example 382, 4-[4-(dimethylsulfamoyl)phenyl]-N-(5-methoxy-1,3,4-thiadiazol-2-yl)-6-methylpyridine-3-carboxamide]	–	1000 to 10000	–
COc1nnc(NC(=O)c2cnc(C)cc2-c2cccc(C(=O)O)c2)s1 [Example 326, 3-(5-((5-methoxy-1,3,4-thiadiazol-2-yl)carbamoyl)-2-methylpyridin-4-yl)benzoic acid]	–	1000 to 10000	–
COc1nnc(NC(=O)c2cnc(C)cc2-c2cc([C@H](C)O)ncc2OC)s1 (single isomer, unassigned) [Example 68]	–	–	IC50 (Table 4, ATP, dT50 ssDNA): 1000 to 10000 nM
COc1nnc(NC(=O)c2cnc(C)cc2-c2cccc(S(N)(=O)=O)c2)s1 [Example 385, N-(5-methoxy-1,3,4-thiadiazol-2-yl)-6-methyl-4-(3-sulfamoylphenyl)pyridine-3-carboxamide]	–	1000 to 10000	–
COc1nnc(NC(=O)c2cnc(C)cc2-c2cccnc2C)s1 [Example 461, N-(5-methoxy-1,3,4-thiadiazol-2-yl)-2,6′-dimethyl-[3,4′-bipyridine]-3′-carboxamide]	–	1000 to 10000	–
COc1nnc(NC(=O)c2ccc(N)cc2-c2cc(Cl)ncc2OC)s1 [Example 286, 4-amino-2-(2-chloro-5-methoxypyridin-4-yl)-N-(5-methoxy-1,3,4-thiadiazol-2-yl)benzamide]	–	≤ 200	–
Cc1cc(-c2cc(Br)ncc2OC(F)F)c(C(=O)Nc2nnc(O[C@H]3CC[C@H](O)CC3)s2)cn1 [Example 205, 2′-bromo-5′-(difluoromethoxy)-N-(5-(((1r,4r)-4-hydroxycyclohexyl)oxy)-1,3,4-thiadiazol-2-yl)-6-methyl-(4,4′-bipyridine)-3-carboxamide]	≤ 200	–	–
COc1cnc(Cl)cc1-c1cc(C)ncc1C(=O)Nc1nnc(O[C@H]2C[C@@H](O)C2(C)C)s1 (single isomer, unassigned) [Example 183, 2′-chloro-N-(5-((1r,3s)-3-hydroxy-2,2-dimethylcyclobutoxy)-1,3,4-thiadiazol-2-yl)-5′-methoxy-6-methyl-(4,4′-bipyridine)-3-carboxamide]	≤ 200	–	–
COc1nnc(NC(=O)c2cnc(C)cc2-c2cccc3ccoc23)s1 [Example 367, 4-(1-benzofuran-7-yl)-N-(5-methoxy-1,3,4-thiadiazol-2-yl)-6-methylpyridine-3-carboxamide]	–	200 to 500	–

The next lines start with results.

IC50 (Table 5, ATP, dT50 ssDNA) [nM]	IC50 [1] [nM]	Compound	also measured
≤ 200	–	COc1cnc(Cl)cc1-c1cc(C)ncc1C(=O)Nc1nnc(O[C@H]2CCC[C@H](OC)C2)s1 (single isomer, unassigned) [Example 147]	–
≤ 200	–	COc1cnc(Cl)c(F)c1-c1cc(C)ncc1C(=O)Nc1nnc(O[C@@H]2CC[C@@H](O)C2)s1 (single isomer, unassigned) [Example 198]	–
≤ 200	–	COc1cnc(Cl)cc1-c1cc(C)ncc1C(=O)Nc1nnc(O[C@H]2CC[C@@]3(CCO3)CC2)s1 (single isomer, unassigned) [Example 186, N-(5-(((4r,7r)-1-oxaspiro(3.5)nonan-7-yl)oxy)-1,3,4-thiadiazol-2-yl)-2′-chloro-5′-methoxy-6-methyl-(4,4′-bipyridine)-3-carboxamide]	–
–	≤ 200	COc1cnc(Br)cc1-c1cc(C)ncc1C(=O)Nc1nnc(O[C@H]2CCC[C@@H](O)C2)s1 (single isomer, unassigned) [Example 244]	–
–	≤ 200	COc1cnc(Cl)cc1-c1cc(C)ncc1C(=O)Nc1nnc(OC2(C3CCOC3)CC2)s1 (centres unmarked) [Example 288, 2′-chloro-5′-methoxy-6-methyl-N-(5-(1-(tetrahydrofuran-3-yl)cyclopropoxy)-1,3,4-thiadiazol-2-yl)-[4,4′-bipyridine]-3-carboxamide]	–
200 to 500	–	COc1nnc(NC(=O)c2cnc(C3CCCC3)cc2-c2cc(Cl)ncc2OC)s1 [Example 143, 2′-chloro-6-cyclopentyl-5′-methoxy-N-(5-methoxy-1,3,4-thiadiazol-2-yl)-(4,4′-bipyridine)-3-carboxamide]	–
≤ 200	–	COCc1cc(-c2cc(Cl)ncc2OC)c(C(=O)Nc2nnc(OC)s2)cn1 [Example 158, 2′-chloro-5′-methoxy-N-(5-methoxy-1,3,4-thiadiazol-2-yl)-6-(methoxymethyl)-(4,4′-bipyridine)-3-carboxamide]	–
≤ 200	–	COc1cnc(Cl)cc1-c1cc(C)ncc1C(=O)Nc1nnc(O[C@@H]2CCO[C@H]2C)s1 (single isomer, unassigned) [Example 116]	–
≤ 200	–	COc1cnc(Cl)cc1-c1cc(C)ncc1C(=O)Nc1nnc(O[C@@H]2CO[C@@H](C)C2)s1 (single isomer, unassigned) [Example 190]	–
–	≤ 200	Cc1cc(-c2cc(Cl)ncc2OC(F)F)c(C(=O)Nc2nnc(O[C@H]3CCC[C@@H](O)C3)s2)cn1 (single isomer, unassigned) [Example 253]	–
–	≤ 200	COc1cnc(Cl)cc1-c1cc(C)ncc1C(=O)Nc1nnc(O[C@H]2CCCN(C3CCOC3)C2)s1 (stereo in doubt) [Example 310, 2′-chloro-5′-methoxy-6-methyl-N-(5-(((S)-1-((S)-tetrahydrofuran-3-yl)piperidin-3-yl)oxy)-1,3,4-thiadiazol-2-yl)-[4,4′-bipyridine]-3-carboxamide]	–
≤ 200	–	COc1cnc(Cl)cc1-c1cc(C)ncc1C(=O)Nc1nnc(O[C@H]2COC(C)(C)C2)s1 (single isomer, unassigned) [Example 131]	–
≤ 200	–	COc1cnc(Cl)cc1-c1cc(C)ncc1C(=O)Nc1nnc(OC2CC3(COC3)C2)s1 [Example 135, N-(5-((2-oxaspiro (3.3)heptan-6-yl)oxy)-1,3,4-thiadiazol-2-yl)-2′-chloro-5′-methoxy-6-methyl-(4,4′-bipyridine)-3-carboxamide]	–
≤ 200	–	COc1cnc(Cl)cc1-c1cc(C)ncc1C(=O)Nc1nnc(O[C@@H]2COC3(CCCC3)C2)s1 (single isomer, unassigned) [Example 229]	–
